Where a name gives a salt, the structure may show the parent alone.
Experiments:
[1] = tested on: human Peripheral Blood Lymphocytes; assay: Proliferative response of human PBL; format: cell-based; details: 1.0 μM, positive inducer of cell death
[2] = tested on: caspase 3; assay: Western blot of caspase 3 activation and PARP cleavage in primary tPTEN−/− tumor cells (KO#732); format: cell-based, murine; details: primary KO#732 cells; COMPOUND-JP 5.0, 10.0 μM; PI-103 10.0 μM; rapamycin 10.0 nM; 2.0-18.0 h
Description: (§1) Cell extracts were prepared using a cell lysis buffer (50 mM HEPES, pH 7.4, 150 mM NaCl, 20 mM EDTA, 100 mM NaF, 10 mM Na3VO4, 0.5% nonyl phenoxypolyethoxylethanol (NP40) supplemented with a cocktail of protease inhibitors. After SDS-PAGE separation and transfer to nitrocellulose immunoblotting was performed using the following antibodies against: Akt (Cell Signaling Technologies, #9272), CHOP (#2895), cleaved caspase 3 (#9664), c-Myc (#9402), eIF2a (#9721), 4EBP1 (#9644), LC3A/B (#12741), PARP (#9542), pJnk (T183/Y185) (#9251), pSer235-236-S6RP (#4856), pSer473-Akt (#9271), pSer65-4EBP1 (#9451) and S6RP (#2217); Bax (Sigma-Aldrich, B8429); PUMA (Abcam, ab54288); Bak (Millipore, 06536); ATF4 (Santa Cruz Biotechnologies, sc200), GADD34 (sc8327), Hsp60 (sc-1722), Hsp90 (sc-13119) and XBP1 (sc-7160); ATF6 (Imgenex, IMG-273).

[3] = tested on: KO99L cells; assay: Combination studies with COMPOUND-JP, WST-1 viability, Chou-Talalay combination index; format: cell-based, murine; details: 48 h, suboptimal concentrations, in combination with COMPOUND-JP
Description: Combinations were analyzed by ANOVA followed by Tukey's Multiple comparison test to determine significance between experimental groups. The synergism between drugs was analyzed using the Chou-Talalay method. […] P-value <0.05 was accepted as statistically significant (*:p<0.05; **:p<0.01; ***:p<0.001). Analyses were performed using the GraphPAd Prism 3.0 software.

[4] = tested on: KO99L cells; assay: BrdU incorporation Elisa (proliferation) on KO99L cells; format: cell-based, murine; details: 50.0 μM, KO99L cells
Description: Two different assays were employed: i) In a 96-well plate format, cells (4.0±0.1×10^4 per well; 100 μL) were incubated with effectors (48 h, 37° C.; n=4 per experiment) and then WST-1 reagent (10 μL; Roche Diagnostics) added to each well of 96-well plates, incubated, and the formazan production was measured at 490 nm; and ii) cells (2.0±0.1×10^4 per well; 100 μL) were incubated with effectors (48 h, 37° C.; n=4 per experiment) and then bromodeoxyuridine reagent (10 μL/well; Roche Diagnostics) was added to each well and incubated (8 h, 37° C.). The cells were then fixed, denatured and incubated with anti-BrdU-conjugated with peroxidase (POD) antibody (100 μL/well). Colorimetric substrate (TMB: tetramethyl-benzidine; 100 μL/well) was added and BrdU incorporation quantified via optical density measurement (450 nm) which corresponds to DNA synthesis and proliferating cells.

[5] = tested on: KO99L cells; assay: Cell death by flow cytometry after DAPI staining, KO99L cells; format: cell-based, murine; details: 50.0 μM
[6] = tested on: caspase 3; assay: Western blot of caspase 3 activation and PARP cleavage, KO99L cells; format: cell-based, murine; details: 50.0 μM
Description: as §1

[7] = tested on: CHOP; assay: Western blot of CHOP protein levels, KO99L cells; format: cell-based, murine; details: 50.0 μM
Description: as §1

[8] = tested on: Bcl2 family members; assay: Western blot of Bcl2 family members, KO99L cells; format: cell-based, murine
Description: as §1

SMILES: CN[C@@H]1C[C@H]2O[C@@](C)([C@@H]1OC)n1c3ccccc3c3c4c(c5c6ccccc6n2c5c31)C(=O)NC4 [staurosporine, reference compound]
- PBL cell proliferation [1]: strongly affected cell proliferation

SMILES: Oc1cccc(-c2nc(N3CCOCC3)c3oc4ncccc4c3n2)c1 [PI103, 3-[4-(4-Morpholinylpyrido[3′,2′:4,5]furo[3,2-d]pyrimidin-2-yl]phenol hydrochloride, reference compound]
- caspase 3 processing and PARP cleavage (apoptosis) [2]: efficient cell death inducer
- combination effect with COMPOUND-JP on metabolic activity/cell survival (Combination Index) [3]: less efficient

SMILES: O=C(C=Cc1ccccc1)NC(NC(=S)Nc1cccc2cccnc12)C(Cl)(Cl)Cl (centres unmarked) [salubrinal, N-(2,2,2-trichloro-1-(3-(quinolin-8-yl)thioureido)ethyl)cinnamamide, reference compound]
- cell proliferation (BrdU incorporation or cell counting) in presence of COMPOUND-JP [4]: restored cell proliferation
- cell death induced via COMPOUND-JP [5]: rescue KO99L cells against cell death
- caspase 3 cleavage in presence of COMPOUND-JP [6]: decreased caspase 3 cleavage
- effect on CHOP induction by COMPOUND-JP (10.0 μM) [7]: offset CHOP induction
- COMPOUND-JP induction of Bax, Bak, PUMA and Bim in presence of salubrinal [8]: sensitive to inhibition of CHOP by salubrinal

From US10172835B2, “Anticancer agent composition” (J-Pharma Co., Ltd., priority 2014, dated 2019)
